From patent US11957766B2, “HNQO1-activatable fluorescent probe for imaging cancer cells in-vitro and in-vivo” (Texas Tech University System, priority 2019, dated 2024)

Tests used:
NQO1 = NQO1 (Homo sapiens, UniProt P15559); assay: Fluorescent response of NIR-ASM towards NQO1; type: biochemical; parameters: purchased Sigma-Aldrich D1515
Protocol: Fluorescent response of NIR-ASM towards NQO1. To unequivocally establish that NIR-ASM is a highly specific sensor for NQO1, the inventors first investigated its spectral properties were systematically studied in simulated physiological conditions 0.1% BSA containing PBS, BSA used as a stabilizing agent, pH 7.4) at 37° C., and the results are given in FIGS. 9D and 9E. […] However, upon addition of NQO1, the absorption at 403 nm disappears and a prominent absorption at 465 nm emerges; Along with the bathochromic shift of UV/Vis absorption, a distinct color change from yellow to red was observed after 30 min of incubation with NQO1. […] However, the reaction of the probe with NQO1 produced a strong fluorescence emission band at 646 nm with a large Stokes shift ([…]) (FIG. 9F), which is highly advantageous for bioimaging analysis, because of non-overlapping excitation and emission wavelengths. Next, the fluorescence response of NIR-ASM to NQO1 at varying concentrations (0-2.5 μg/mL) was studied. […] Also, the fluorescence enhancement was directly proportional to the enzyme concentration in the range of 0.125-2.5 μg/mL (R^2=0.9919, FIG. 9G). The NQO1 detection limit (LOD) of NIR-ASM was calculated to be as low as 0.191 μg/mL, based on the standard deviation of the response (Sy) and the slope of the calibration curve (S) according to the formula: LOD=3.3(Sy/S).
Spectroscopic measurements. NIR-ASM was dissolved with DMSO to prepare a stock solution, which was then diluted with enzyme reaction buffer (PBS containing 2.5 μg/mL, 100 μM NADH and 0.1% BSA) to prepare different concentrations of the probe for UV/Vis and fluorescence measurement. Time-dependent fluorescence intensity changes for different concentrations of NIR-ASM in the presence of NQO1 (2.5 μg/mL) and 100 μM NADH were measured using Clear bottom 96 well black plate and microplate reader. Fluorescence (ex. 460 nm and em. 646 nm) was quantitated every minute for 90 min with 20 seconds of shaking in between intervals.

hNQO1 in T98G cells = assay: siRNA knockdown of NQO1 and NQ-DCP activation; type: cell-based, human; conditions: compared with a siRNA control, 10 μM probe
Protocol: Evaluation of Specificity in Cancer Cells. To show the substrate selectivity of NQ-DCP for hNQO1, T98G cells were pretreated with 100 nM of NQO1 inhibitor ES936 for 6 h and incubated 10 μM of NQ-DCP.
Knockdown of NQO1 by Small Interfering RNA (siRNA). NQO1 siRNA (a pool of 3 target-specific 19-25 nt siRNAs, Santa Cruz Biotechnology, Inc., (Dallas, TX, USA) and scrambled siRNAs were introduced into cells using the X-tremeGENE siRNA transfection reagent (Roche, Basel, Switzerland) according to the manufacturer's instructions with 80 pmol of NQO1 siRNA and 10 μl of transfection reagent per well of a six-well plate for T98G cells.

intracranial U87MG tumor = assay: Fluorescence imaging of hNQO1 in intracranial U87MG tumor-bearing mice with NQ-DCP; type: in vivo
Protocol: Fluorescence Imaging of hNQO1 in U87MG Tumor-Bearing Mice. With the prominent performance of NQ-DCP in cellular fluorescence imaging, the inventors further applied this probe to evaluate its capacity for the noninvasive fluorescence imaging of hNQO1 in vivo. NQ-DCP (10 mg/kg, 50 μL) was intravenously injected into sub-cutaneous U87MG tumor-bearing mice. The whole-body fluorescence was imaged with a Caliper IVIS Spectral imaging system. […] The host organs and tumor from the mice administered with NQ-DCP were harvested and their fluorescence was analyzed ex vivo using the IVIS to confirm the tumor-selective targeting ability of NQ-DCP. […] The application of NQ-DCP to image hNQO1 activity was also investigated in intracranial U87MG tumor-bearing mice. Tumor xenografts were established by implanting exponentially growing U87MG-Luc cells by stereotaxic injection into mice brain and the tumor growth was assessed by quantitative bioluminescence using IVIS (in vivo imaging system) (FIG. 7C). […] Therefore, the inventors performed intracranial injection of NQ-DCP (100 μM, 5 μL) to both healthy and tumor-bearing mice, the brain was isolated after 30 min and fluorescence images acquired.
Four-week-old male and female NCG and athymic nude mice were housed in a micro ventilated caging system in a sterile environment and fed ad-libitum with standard irradiated research rodent diet and water. To detect endogenous NQO1 activity, NQ-DCP (10 mg/kg) was dissolved PEG-400:EtOH:saline (57.1:14.3:28.6, v/v/v) and 50 μL given through intravenous injection and animals were imaged using IVIS Lumina XR Imaging system. To establish U87MG xenografts, a total of 5×10^6 cells (in 0.1 mL) were subcutaneously injected into the right inguinal area of the athymic nude mice. For establishing the orthotopic brain tumor model, the animals were anesthetized using 2% isoflurane and positioned in a Benchmark (Leica) stereotactic instrument. A 27-gauge needle was then used to drill a burr hole into the skull 0.5-mm anterior and 2-mm lateral to the bregma. U87MG-Luc2 cell suspension (2×10^5 cells in 5 μl PBS) was injected in the striatum at a depth of […] from the dural surface over 10 min. […] To detect endogenous NQO1 activity, orthotopic brain tumor models, NQ-DCP ([…]) was dissolved saline and 5 μL given through intracranial injection to both healthy and tumor-bearing mice. After 30 min of administration, brains were isolated and imaged using IVIS Lumina XR Imaging system.

[1] = intracranial injection 100 μM, 5 μL, brain isolated after 30 min

Sequence of NQO1 (P15559 whole entry): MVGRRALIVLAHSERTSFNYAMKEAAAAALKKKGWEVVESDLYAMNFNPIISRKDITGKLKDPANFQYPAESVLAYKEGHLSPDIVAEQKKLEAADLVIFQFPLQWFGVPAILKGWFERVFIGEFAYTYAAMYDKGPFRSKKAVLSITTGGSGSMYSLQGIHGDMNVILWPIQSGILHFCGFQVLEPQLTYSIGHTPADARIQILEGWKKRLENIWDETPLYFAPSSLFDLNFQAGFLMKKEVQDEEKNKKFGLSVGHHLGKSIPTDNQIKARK

| enzyme concentration range in which fluorescence enhancement was directly proportional (NQO1; 100 μM NADH) [µg/mL] | NQO1 detection limit (LOD) (NQO1; LOD=3.3(Sy/S)) [µg/mL] | time to maximum emission at 646 nm (NQO1; NQO1 2.5 μg/mL) [min] | Stokes shift (NQO1; after reaction with NQO1) [nm] | fluorescence emission band (NQO1; after reaction with NQO1) [nm] | absorption band (NQO1; before addition of NQO1, PBS 0.1% BSA pH 7.4, 37° C.) [nm] | absorption (NQO1; upon addition of NQO1) [nm] | SMILES | decrease in fluorescence after siRNA silencing of the hNQO1 gene (hNQO1 in T98G cells) | blood-brain barrier crossing (intracranial U87MG tumor; explanation offered ("perhaps") for lack of signal after systemic injection) | ex vivo brain fluorescence, control healthy mouse (intracranial U87MG tumor; [1]) | ex vivo brain fluorescence, tumor-bearing mouse (intracranial U87MG tumor; [1]) | fluorescence signal in intracranial tumors (intracranial U87MG tumor; systemic injections of the probe) |
| --- | --- | --- | --- | --- | --- | --- | --- | --- | --- | --- | --- | --- |
| 0.125 to 2.5 | 0.191 | 30 | 186 | 646 | 403 | 465 | CC1=C(C)C(=O)C(C(C)(C)CC(=O)Nc2ccc(/C=C/C3=CC(=C(C#N)C#N)CC(C)(C)C3)cc2)=C(C)C1=O [NIR-ASM, (E)-N-(4-(2-(3-(dicyanomethylene)-5,5-dimethylcyclohex-1-en-1-yl)vinyl)phenyl)-3-methyl-3-(2,4,5-trimethyl-3,6-dioxocyclohexa-1,4-dien-1-yl)butanamide] | – | – | – | – | – |
| – | – | – | – | – | – | – | CC1=C(C)C(=O)C(C(C)(C)CC(=O)Oc2ccc(/C=C/C3=CC(=C(C#N)C#N)CC(C)(C)C3)cc2)=C(C)C1=O [NQ-DCP] | 90-95% | inability of the NQ-DCP to cross the blood-brain barrier | no fluorescence | bright fluorescence signal | not able to observe any fluorescence signal |
